Assay results taken from patent publication US20220401617A1, “ADHESIVE COMPOSITIONS COMPRISING THERAPEUTICS” (RevBio, Inc., priority 2019, published 2022).
Structures can show the parent of a compound that is named as a salt.

Legend:
[1] = format: physicochemical
Experimental: Several formulations of compositions comprising pain relievers (e.g., locally acting analgesics (e.g., naproxen and diclofenac) or local anesthetics (e.g. bupivacaine and articaine) were investigated for their affinity to the adhesive composition. The affinity of the therapeutic depends on the nature of the therapeutic and its interaction with the composition. This is measured as the partition coefficient which is the ratio of the amount of drug released from the composition to the ratio of the amount of drug retained in the composition under specific conditions.
The specific composition (e.g., adhesive composition) comprised 400 mg tetracalcium phosphate, 250 mg phosphoserine (a compound in FIG. 1V-a), and 135 μl of water that was prepared by mixing for 30 seconds, after which the mixture was formed into standard spherical substrates and allowed to cure. The substrate was then crushed using a mortar and pestle and used as a control. For the composition comprising a therapeutic, 1% w/w of the therapeutic was added to the tetracalcium phosphate and phosphoserine powder blend. The therapeutic was thoroughly mixed with tetracalcium phosphate and phosphoserine, after which deionized water was added and mixed for 30 seconds. Standard spherical substrates approximately 8 mm in diameter of adhesive composition were prepared. After curing, the substrate was crushed using mortar and pestle and the samples were incubated in 50 mL 1× PBS solution for 18 hours at 37° C. The partition coefficient of the therapeutic was evaluated using high-pressure liquid chromatography (HPLC) as shown in Table 3 below.

[2] = Properties of exemplary adhesive compositions (compound + tetra-calcium phosphate + water); format: physicochemical; settings: mixed with tetra-calcium phosphate and water
Experimental: Exemplary adhesive compositions were prepared by providing the compounds listed in Table 1 and tetra-calcium phosphate in a suitable receptacle and mixing with water to achieve the desired consistency. While water was used as the aqueous medium in the present compositions, the aqueous medium may instead be blood, saliva, serum, or a blood-based solution or suspension. In the present compositions, the solid components (compounds, tetra-calcium phosphate) were provided as particles. However, the solid components listed in the table may be provided in particle, granule, or fiber form, and the size of each of the components may vary as described in the Detailed Description. In some embodiments, the resulting properties, such as working and setting time, may be affected by these changes. The specific mean particle, granule, or fiber size for each solid component was selected to satisfy the use requirements as described in each of the embodiments.
The compounds comprising glyphosine, O-Phospho-L-serine (OPLS), […] […] After mixing, the compositions described were applied to the desired site and the adhesive properties examined, e.g., for tensile strength and durability.

[3] = 8% w/w naproxen, ssNMR
[4] = Release of bupivacaine from porous adhesive composition formulation (HPLC elution); format: physicochemical; settings: 10% w/w drug, 50 mL 1x PBS, 7-day period, 37° C.
Experimental: Several formulations of compositions comprising pain relievers (e.g., local anesthetics (e.g. bupivacaine)) were investigated. […] The release study was analyzed using elution studies, where HPLC was used to analyze the amount of pain reliever released over time. The elution profile of bupivacaine from a porous adhesive composition matrix was analyzed over a 7-day period.
The particle size of calcium carbonate was between 15 nm to 40 nm. This formulation was used a control for the study. […] A bupivacaine formulation was tested by adding 10% w/w of the drug to the tetracalcium phosphate and phosphoserine powder blend. Standard spherical substrates of approximately 8 mm in diameter of porous adhesive bone regenerative were prepared. After curing, the samples were incubated in 50 mL 1× PBS solution for 7-days at 37° C.

[5] = Retention/elution of gentamicin from adhesive composition matrix (HPLC); format: physicochemical; settings: 2.5% w/w or 5% w/w gentamicin, PBS, 37° C., 10 days incubation
Experimental: Several formulations of compositions comprising antibiotics (AB) were investigated. The retention of the AB within the compositions may avoid or prevent bacterial colonization on or within the cured adhesive composition or any post-operative infection that could develop. The retention study was analyzed using elution studies, wherein high-pressure liquid chromatography (HPLC) was used to analyze the amount of AB released over time. Particularly, the elution profile of gentamicin from adhesive composition matrix was analyzed at days 1, 3, 5 and 10.
Several compositions were tested by adding either 2.5% w/w or 5% w/w of gentamicin to the tetracalcium phosphate and phosphoserine powder blend. Each cylinder was immersed in a polypropylene tube with 5 ml phosphate buffered saline (PBS) and shaken in a rotator at 37° C. Over the study period of 10 days, daily transfer of the cement cylinder into a test tube with PBS was conducted after saline washings. Elution samples of PBS was collected at various time points over a period of 10 days. The control was adhesive composition with no gentamicin, and the standard was different concentration of gentamicin alone.

CC(C)Cc1ccc(C(C)C(=O)O)cc1 (stereo not drawn) [Ibuprofen]
Partition coefficient [1]: 0

N[C@@H](COP(=O)(O)O)C(=O)O [O-Phospho-L-serine, O-Phospho-L-Serine]
Properties of the adhesive composition prepared with the compound [2]: injectable, adhesive, tacky, and self-setting

CC(=O)Oc1ccccc1C(=O)O [Aspirin]
Partition coefficient [1]: 0.61

O=C(O)Cc1ccccc1Nc1c(Cl)cccc1Cl [Diclofenac•Na]
Partition coefficient [1]: 0.103

COc1ccc2cc([C@H](C)C(=O)O)ccc2c1 [Naproxen]
Elution of naproxen from the adhesive composition ([3]; crushed, 10 mL 1x PBS, 4-days, 37° C.): almost fully eluted
Modification of chemical structure upon inclusion in the adhesive composition [3]: no modification of the naproxen chemical structure

O=P(O)(O)CN(CP(=O)(O)O)CP(=O)(O)O [aminotris(methylenephosphonic acid), (Nitrilotris(methylene)) triphosphonic acid]
Properties of the adhesive composition prepared with the compound [2]: injectable, adhesive, tacky, and self-setting

O=C(O)CN(CCN(CC(=O)O)CC(=O)O)CC(=O)O [ethylenediaminetetraacetic acid, Ethylenediamine tetraacetic acid]
Properties of the adhesive composition prepared with the compound [2]: injectable, adhesive, tacky, and self-setting

CCCCN1CCCCC1C(=O)Nc1c(C)cccc1C (stereo not drawn) [Bupivacaine•HCl]
Partition coefficient [1]: 0.37
% bupivacaine release, porous vs non-porous formulation [4]: remarkable increase

O=C(O)CN(CP(=O)(O)O)CP(=O)(O)O [glyphosine, N,N-Bis(phosphonomethyl)glycine]
Properties of the adhesive composition prepared with the compound [2]: injectable, adhesive, tacky, and self-setting

gentamicin
Retention of gentamicin in the adhesive composition [5]: most of gentamicin was retained
